Tests used:
P388/adr [1] = test: In vivo study of inhibition of MDR activity, nude mice xenografted with P388/adr
Protocol: Method: Using defined characteristics of […] P388/adr cell line in a nude mice model to determine the inhibition of MDR activity. Quantitative subcutaneous injection of P388 cell into the armpit of nude mice was followed for a certain period of time. […] The formulations and a cepharanthine control were administered by intraperitoneal injection for 2 to 4 times a day, and the animals consecutively observed for 10 days. Life span and survival rates were calculated.

P388/adr cell line = test: Isotopic determination of vincristine concentration in the P388/adr cell line; format: cell-based; details: P388/adr MDR cells; for inhibition of MDR activity / intracellular isotope marker concentration compared with verapamil: three levels; for intracellular vinca alkaloid concentration, combined therapy vs other known MDR inhibitors (tetrandrine, fangchinoline, cepharanthine): low, middle and high dosages
Protocol: Method: By using an isotope marker, differences were observed between intracellular vincristine concentrations during combined therapy and single therapy. […] The dosages were arranged in low, middle and high groups in parallel studies, results were calculated in dpm of vincristine concentration in the cell.

in vivo = test: in vivo
Protocol: Method: LDs50 values for the compounds of formula (I) were calculated according to the method of Gaddum and Gu Han Yi.

[2] = test system: Salmonella typhimurium TA97, TA98, TA100 and TA102; test: Mutagenicity test (Ames method); details: plate method, dosages 100, 20, 4, 0.8, 0.16
Protocol: Determinations were carried out the using Salmonella typhimurium […] mutants types TA97, TA98, TA100 and TA102 to detect the mutagenicity of said compound. Mutagenicity was determined according to the method of Ames. (Ames, B., et al. (1973). An improved bacterial test system for the detection and classification of mutagens and carcinogens. Proc. Natl. Acad. Sci. USA 70: 782-786). In the plate method with dosages of 100, 20, 4, 0.8, and 0.16, compared with the blank control, (self made compound S9), counting the number of reversed mutative colony changed, to decide the mutagenicity of the test compound.

P388/adr [3] = test: In vitro reversal of multi drug resistance to vinblastine in P388/adr cells; format: cell-based; details: vinblastine against multi drug resistance cell line P388/adr
Protocol: The IC50 value was in the range of 2-3 μg/mL, the reversal index against P388 was around 20, and most of the compounds completely reversed multi drug resistance of vinblastine-treated tumor cells.

CCCOc1c(OC)cc2c3c1Oc1cc4c(cc1OC)CCN(C)[C@H]4Cc1ccc(cc1)Oc1cc(ccc1OC)C[C@@H]3N(C)CC2
melting point: 175 to 176 °C

COc1cc(Br)c2cc1Oc1ccc(cc1)C[C@H]1c3cc(c(OC)cc3CCN1C)Oc1c(OC)c(OC)c(Br)c3c1[C@H](C2)N(C)CC3 [Example 9, 5,14-dibromo-tetrandrine]
melting point: 184 to 185 °C

COc1ccc2cc1Oc1ccc(cc1)C[C@H]1c3cc(c(OC)cc3CCN1C)Oc1c(OC)c(OC)c(Br)c3c1[C@H](C2)N(C)CC3 [Example 8, 5-bromo-tetrandrine]
inhibition of MDR activity of vinblastine against P388/adr compared with cepharanthine (VIII) (P388/adr [1]): significantly stronger | increase of survival rates by the combined therapy (P388/adr [1]; combined therapy with vinca alkaloid vs monotherapy, intraperitoneal, observed 10 days): 37.7% | inhibition of MDR activity / intracellular isotope marker concentration compared with verapamil (P388/adr cell line): corresponding to verapamil | inhibition of MDR activity / intracellular isotope marker concentration compared with verapamil (P388/adr cell line; listed as Example No. 8): comparable to the available agent verapamil | intracellular vinca alkaloid concentration, combined therapy vs monotherapy (P388/adr cell line; isotope marker): significantly higher | intracellular vinca alkaloid concentration, combined therapy vs other known MDR inhibitors (tetrandrine, fangchinoline, cepharanthine) (P388/adr cell line; isotope marker): significantly higher | intracellular vinca alkaloid concentration, combined therapy vs other known MDR inhibitors (tetrandrine, fangchinoline, cepharanthine) (P388/adr cell line; isotope marker, listed as Example No. 8): higher | LD50 at 1 month (in vivo; in vivo, route not stated at this place, read-out: acute toxicity LD50): > 125 mg/kg | LDs50, intraperitoneal administration (in vivo; intraperitoneal): > 368 mg/kg bodyweight | LDs50, intravenous administration (in vivo; intravenous): > 125 mg/kg bodyweight | mutagenicity (Ames) [2]: void of mutagenicity

cepharanthine
IC50 value (P388/adr [3]): 11.7 µg/mL
